From patent US20250145635A1, “COMPOUND CONTAINING BIS(AZANYLYLIDENE) SULFONYL STRUCTURE AND USE THEREOF IN MEDICINE” (SCINNOHUB PHARMACEUTICAL CO., LTD., priority 2021, published 2025)

Molecular target: recombinant human PKR enzyme (Homo sapiens (Human), UniProt P30613)
Assay: Pyruvate kinase (PKR) activity experiment
Type: biochemical
Details: activation of recombinant human PKR enzyme
Experimental: • 1). A recombinant human PKR enzyme solution was formulated at a concentration of 60 ng/well (a 20 μL reaction system), and 5 μL of the solution was added into each well of a black transparent bottom 384-well plate. • 2). Compound solutions were formulated at different concentrations, with the final concentrations of 1000/300/100 nM (containing 1% DMSO). Each 5 μL of the compound solution was added into the plate in item 3.1 and mixed well. The plate was incubated at room temperature for 10 min. • 3). A reaction system was formulated according to the instructions of a kit (as shown in the table below), and 10 μL of the reaction system was added into each well of the 384-well plate, and mixed uniformly with the solution in item 3.2.
• 4). The 384-well plate was placed on a microplate reader to detect the fluorescence value at 540/590 nm, where the value was read every 2 minutes and the detection was conducted continuously for 1 hour. • 5). The Slope value within the detection time was calculated, and the 0.1% DMSO well was used as a control well to calculate a compound activation rate.
[formula] • 6). Fitting dose-effect curve
With the log value of the compound concentration as the X axis and the percentage activation rate as the Y axis, a dose-effect curve was fitted with the log(agonist) vs. response-variable slope of the analysis software GraphPad Prism 5, and the AC50 value of the activity of each compound against PKR was obtained.

Chain of recombinant human PKR enzyme (P30613 whole entry): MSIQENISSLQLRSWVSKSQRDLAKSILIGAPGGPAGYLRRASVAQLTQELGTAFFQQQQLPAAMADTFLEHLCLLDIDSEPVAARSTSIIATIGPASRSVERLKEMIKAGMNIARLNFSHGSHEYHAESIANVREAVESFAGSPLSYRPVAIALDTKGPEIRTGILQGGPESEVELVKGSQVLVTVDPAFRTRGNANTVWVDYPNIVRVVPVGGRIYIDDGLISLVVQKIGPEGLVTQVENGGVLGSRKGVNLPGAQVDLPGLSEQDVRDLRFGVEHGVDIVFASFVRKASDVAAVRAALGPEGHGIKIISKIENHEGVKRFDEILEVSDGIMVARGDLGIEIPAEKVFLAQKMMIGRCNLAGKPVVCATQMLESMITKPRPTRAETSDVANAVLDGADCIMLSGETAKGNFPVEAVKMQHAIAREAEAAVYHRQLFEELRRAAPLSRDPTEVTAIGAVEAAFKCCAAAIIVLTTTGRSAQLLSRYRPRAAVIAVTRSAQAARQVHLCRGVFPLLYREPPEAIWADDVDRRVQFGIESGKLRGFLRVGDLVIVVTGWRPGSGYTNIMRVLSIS

| Compound | AC50 [nM] |
| --- | --- |
| O=C([C@H](CO)c1ccccc1)N1CC(=C2CN(S(=O)(=O)c3ccc(OC(F)F)cc3)C2)C1 [Compound 7, (S)-1-(1′-((4-(difluoromethoxy)phenyl)sulfonyl)-1′,4′-dihydro-2H,2′H-[3,3′-diazetidinylidene]-1(4H)-yl)-3-hydroxy-2-phenylpropan-1-one] | 101 to 300 |
| O=C([C@H](CO)c1ccccc1)N1CC(=C2CN(S(=O)(=O)c3ccc(OC(F)(F)F)cc3)C2)C1 [Compound 9, (S)-3-hydroxy-2-phenyl-1-(1′-((4-(trifluoromethoxy)phenyl)sulfonyl)-1′,4′-dihydro-2H,2′H-[3,3′-diazetidinylidene]-1(4H)-yl)propan-1-one] | 101 to 300 |
| O=C([C@H](CO)c1ccccc1)N1CC(=C2CN(S(=O)(=O)c3ccc(F)cc3)C2)C1 [Compound 10] | 101 to 300 |
| O=C([C@H](CO)c1ccccc1)N1CC(=C2CN(S(=O)(=O)c3ccc(OC(F)F)c(F)c3)C2)C1 [Compound 11] | 101 to 300 |
| O=C([C@H](CO)c1ccccc1)N1CC(=C2CN(S(=O)(=O)c3ccc4c(c3)NCCO4)C2)C1 [Compound 12, (S)-1-(1′-((3,4-dihydro-2H-benzo[b][1,4]oxazin-6-yl)sulfonyl)-1′,4′-dihydro-2H,2′H-[3,3′-diazetidinylidene]-1(4H)-yl)-3-hydroxy-2-phenylpropan-1-one] | < 100 |
| O=C(C(O)c1ccc2c(c1)NCCO2)N1CC(=C2CN(S(=O)(=O)c3ccc(OC(F)F)cc3)C2)C1 (stereo not shown) [Compound 13, 1-(1′-((4-(difluoromethoxy)phenyl)sulfonyl)-1′,4′-dihydro-2H,2′H-[3,3′-diazetidinylidene]-1(4H)-yl)-2-(3,4-dihydro-2H-benzo[b][1,4]oxazin-6-yl)-2-hydroxyethan-1-one] | < 100 |
| CNCC(C(=O)N1CC(=C2CN(S(=O)(=O)c3ccc4c(c3)OCCO4)C2)C1)c1cccc(OC)c1 (stereo not shown) [Compound 15, 1-(1′-((2,3-dihydrobenzo[b][1,4]dioxin-6-yl)sulfonyl)-1′,4′-dihydro-2H,2′H-[3,3′-diazetidinylidene]-1(4H)-yl)-2-(3-methoxyphenyl)-3-(methylamino)propan-1-one] | 300 to 1000 |
| O=C(C(CO)c1ccc(F)cc1)N1CC(=C2CN(S(=O)(=O)c3ccc(OC(F)F)cc3)C2)C1 (stereo not shown) [Compound 16, 1-(1′-((4-(difluoromethoxy)phenyl)sulfonyl)-1′,4′-dihydro-2H,2′H-[3,3′-diazetidinylidene]-1(4H)-yl)-2-(4-fluorophenyl)-3-hydroxypropan-1-one] | 101 to 300 |
| CC(C)(O)C(C(=O)N1CC(=C2CN(S(=O)(=O)c3ccc(OC(F)F)cc3)C2)C1)c1ccccc1 (stereo not shown) [Compound 17, 1-(1′-((4-(difluoromethoxy)phenyl)sulfonyl)-1′,4′-dihydro-2H,2′H-[3,3′-diazetidinylidene]-1(4H)-yl)-3-hydroxy-3-methyl-2-phenylbutan-1-one] | 300 to 1000 |
| O=C([C@H](CO)c1ccccc1)N1CC(=C2CN(S(=O)(=O)c3cc(F)c4c(c3)OCCO4)C2)C1 [Compound 20, (S)-1-(1′-((8-fluoro-2,3-dihydrobenzo[b][1,4]dioxin-6-yl)sulfonyl)-1′,4′-dihydro-2H,2′H-[3,3′-diazetidinylidene]-1(4H)-yl)-3-hydroxy-2-phenylpropan-1-one] | 101 to 300 |
| NC(C(=O)N1CC(=C2CN(S(=O)(=O)c3ccc(OC(F)F)cc3)C2)C1)c1ccc(F)cc1 (stereo not shown) [Compound 22, 2-amino-1-(1′-((4-(difluoromethoxy)phenyl)sulfonyl)-1′,4′-dihydro-2H,2′H-[3,3′-diazetidinylidene]-1(4H)-yl)-2-(4-fluorophenyl)ethan-1-one] | 300 to 1000 |
| NC(C(=O)N1CC(=C2CN(S(=O)(=O)c3ccc(OC(F)F)cc3)C2)C1)c1cccc(C(F)(F)F)c1 (stereo not shown) [Compound 23, 2-amino-1-(1′-((4-(difluoromethoxy)phenyl)sulfonyl)-1′,4′-dihydro-2H,2′H-[3,3′-diazetidinylidene]-1(4H)-yl)-2-(3-(trifluoromethyl)phenyl)ethan-1-one] | 300 to 1000 |
| Cc1nc2c(C(O)C(=O)N3CC(=C4CN(S(=O)(=O)c5ccc(OC(F)F)cc5)C4)C3)cccc2s1 (stereo not shown) [Compound 24, 1-(1′-((4-(difluoromethoxy)phenyl)sulfonyl)-1′,4′-dihydro-2H,2′H-[3,3′-diazetidinylidene]-1(4H)-yl)-2-hydroxy-2-(2-methylbenzo[d]thiazol-4-yl)ethan-1-one] | 300 to 1000 |
| O=C([C@H](CO)c1ccc(F)cc1)N1CC(=C2CN(S(=O)(=O)c3ccc4ncsc4c3)C2)C1 [Compound 25, (S)-1-(1′-(benzo[d]thiazol-6-ylsulfonyl)-1′,4′-dihydro-2H,2′H-[3,3′-diazetidinylidene]-1(4H)-yl)-2-(4-fluorophenyl)-3-hydroxypropan-1-one] | < 100 |
| O=C([C@H](CO)c1ccccc1)N1CC(=C2CN(S(=O)(=O)c3ccc(-c4ncco4)c(F)c3)C2)C1 [Compound 27, (S)-1-(1′-((3-fluoro-4-(oxazol-2-yl)phenyl)sulfonyl)-1′,4′-dihydro-2H,2′H-[3,3′-diazetidinylidene]-1(4H)-yl)-3-hydroxy-2-phenylpropan-1-one] | 300 to 1000 |
| CNCC(C(=O)N1CC(=C2CN(S(=O)(=O)c3ccc4c(c3)OCCO4)C2)C1)c1ccc(F)c(Cl)c1OC (stereo not shown) [Compound 28] | 300 to 1000 |
| O=C([C@H](CO)c1ccc(F)cc1)N1CC(=C2CN(S(=O)(=O)c3ccc4c(c3)OCCO4)C2)C1 [Compound 30, (S)-1-(1′-((2,3-dihydrobenzo[b][1,4]dioxin-6-yl)sulfonyl)-1′,4′-dihydro-2H,2′H—[3,3′-diazetidinylidene]-1(4H)-yl)-2-(4-fluorophenyl)-3-hydroxypropan-1-one] | < 100 |
| O=C([C@@H](CO)c1ccc(F)cc1)N1CC(=C2CN(S(=O)(=O)c3ccc4c(c3)OCCO4)C2)C1 [Compound 31, (R)-1-(1′-((2,3-dihydrobenzo[b][1,4]dioxin-6-yl)sulfonyl)-1′,4′-dihydro-2H,2′H-[3,3′-diazetidinylidene]-1(4H)-yl)-2-(4-fluorophenyl)-3-hydroxypropan-1-one] | 300 to 1000 |
| O=C(C(CO)c1ccc2ccccc2c1)N1CC(=C2CN(S(=O)(=O)c3ccc4ncsc4c3)C2)C1 (stereo not shown) [Compound 32, 1-(1′-(benzo[d]thiazol-6-ylsulfonyl)-1′,4′-dihydro-2H,2′H-[3,3′-diazetidinylidene]-1(4H)-yl)-3-hydroxy-2-(naphthalene-2-yl)propan-1-one] | < 100 |
| CN1CCN(c2cccc(C(CO)C(=O)N3CC(=C4CN(S(=O)(=O)c5ccc6ncsc6c5)C4)C3)c2)CC1 (stereo not shown) [Compound 33] | 300 to 1000 |
| Cn1cc(-c2ccc(C(CO)C(=O)N3CC(=C4CN(S(=O)(=O)c5ccc6ncsc6c5)C4)C3)cc2)cn1 (stereo not shown) [Compound 34, 1-(1′-(benzo[d]thiazol-6-ylsulfonyl)-1′,4′-dihydro-2H,2′H-[3,3′-diazetidinylidene]-1(4H)-yl)-3-hydroxy-2-(4-(1-methyl-1H-pyrazol-4-yl)phenyl)propan-1-one] | 300 to 1000 |
| Cc1nc2ccc(S(=O)(=O)N3CC(=C4CN(C(=O)[C@H](CO)c5ccccc5)C4)C3)cc2s1 [Compound 35, (S)-3-hydroxy-1-(1′-((2-methylbenzo[d]thiazol-6-yl)sulfonyl)-1′,4′-dihydro-2H,2′H-[3,3′-diazetidinylidene]-1(4H)-yl)-2-phenylpropan-1-one] | < 100 |
| O=C(C(CO)c1ccc(F)cc1)N1CC(=C2CN(S(=O)(=O)c3ccc4c(c3)OC(F)(F)O4)C2)C1 (stereo not shown) [Compound 36, 1-(1′-((2,2-difluorobenzo[d][1,3]dioxolan-5-yl)sulfonyl)-1′,4′-dihydro-2H,2′H-[3,3′-diazetidinylidene]-1(4H)-yl)-2-(4-fluorophenyl)-3-hydroxypropan-1-one] | 300 to 1000 |
| O=C(N1CC(=C2CN(S(=O)(=O)c3ccc(OC(F)F)cc3)C2)C1)C1(c2ccccc2)CCOC1 (stereo not shown) [Compound 37, (1′-((4-(difluoromethoxy)phenyl)sulfonyl)-1′,4′-dihydro-2H,2′H-[3,3′-diazetidinylidene]-1(4H)-yl)(3-phenyltetrahydrofuran-3-yl)methanone] | < 100 |
| CNCC(C(=O)N1CC(=C2CN(S(=O)(=O)c3ccc4ncsc4c3)C2)C1)c1ccc(F)c(Cl)c1 (stereo not shown) [Compound 38, 1-(1′-(benzo[d]thiazol-6-ylsulfonyl)-1′,4′-dihydro-2H,2′H-[3,3′-diazetidinylidene]-1(4H)-yl)-2-(3-chloro-4-fluorophenyl)-3-(methylamino)propan-1-one] | 300 to 1000 |
| CN1CCOc2ccc(S(=O)(=O)N3CC(=C4CN(C(=O)[C@H](CO)c5ccccc5)C4)C3)cc21 [Compound 39, (S)-3-hydroxy-1-(1′-((4-methyl-3,4-dihydro-2H-benzo[b][1,4]oxazin-6-yl)sulfonyl)-1′,4′-dihydro-2H,2′H-[3,3′-diazetidinylidene]-1(4H)-yl)-2-phenylpropan-1-one] | < 100 |
| O=C1COc2ccc(S(=O)(=O)N3CC(=C4CN(C(=O)[C@H](CO)c5ccccc5)C4)C3)cc2N1 [Compound 40, (S)-6-((1′-(3-hydroxy-2-phenylpropionyl)-1′,4′-dihydro-2H,2′H-[3,3′-diazetidinylidene]-1(4H)-yl)sulfonyl)-2H-benzo[b][1,4]oxazine-3(4H)-one] | 101 to 300 |
| CN1C(=O)COc2ccc(S(=O)(=O)N3CC(=C4CN(C(=O)[C@H](CO)c5ccccc5)C4)C3)cc21 [Compound 41, (S)-6-((1′-(3-hydroxy-2-phenylpropionyl)-1′,4′-dihydro-2H,2′H-[3,3′-diazetidinylidene]-1(4H)-yl)sulfonyl)-4-methyl-2H-benzo[b][1,4]oxazine-3(4H)-one] | 300 to 1000 |
